Patent US12208093B2 (THE JOHNS HOPKINS UNIVERSITY, priority 2016, dated 2025)
“Also recorded” adds a separate entry of the source. Where a name gives a salt, the structure may show the parent alone. Read-outs that look alike come from different tables or passages of the source.

Assays:
[1] = test system: HSV-1 (luciferase HSV1-KOS/Dlux/oriS); experiment: HSV-1 luciferase assay in HFFs; format: cell-based, herpes simplex virus 1; settings: nM concentrations
From the text: Cell culture, virus infection and anti-viral assays.

[2] = test system: pp28-luciferase HCMV Towne; experiment: Drug combination emetine + GCV, Bliss model; format: cell-based, human cytomegalovirus (HCMV); settings: combined with ganciclovir (GCV), dihydrochloride hydrate
Experimental: Drug combination. The combined inhibitory effect of compounds on HCMV replication was determined in infected HFFs. A dose response curve was first generated for each compound; the EC50 and slope were calculated. […] The Bliss model was used for quantification of the effect of two compounds on HCMV replication (40). In this model, drug combination represents the product of two probabilistically independent events as described in the following equation (41): […]
The combined effect of two inhibitors (FU, fractional unaffected) is computed as the product of individual effects of the two inhibitors, FU1 and FU2. If the ratio of observed fold inhibition divided by the expected fold inhibition is greater than 1, the compounds are synergistic. If the ratio is less than 1, the combination is considered antagonistic, and if it equals to 1 the combination is additive.

[3] = in vivo
Experimental: Pharmacokinetics and CMV inhibition in mice. […] The dosing solution was prepared in saline with a dosing volume of 10 mL/kg. Blood and tissue samples including liver, lung and spleen were collected at 0, 0.083, 0.25, 0.5, 0.75, 1, 2, 3, 4, 7, 24, 30, 48, 72 and 96 hr. […] Pharmacokinetic parameters (Cmax, Tmax, AUC and t1/2) were calculated with a non-compartmental approach using the Pharsight WinNonLin software (Ver. 6.4). The experimental procedures were approved by the Animal Care and Use Committee of Division of Veterinary Resources, NIH.

[4] = biological target: T1, RPS14 and MDM2 (Homo sapiens, UniProt P62263+Q00987); experiment: Co-immunoprecipitation of RPS14 and MDM2; RPS14 expression and ubiquitination; format: cell-based
T1 construct: endogenous in cells; host or cells: Human foreskin fibroblasts (HFFs, ATCC CRL-2088), infected with HCMV Towne
From the text: SDS-polyacrylamide gel electrophoresis and immunoblot analysis. Cell lysates were quantified for protein content using bicinchoninic acid (BCA) protein assay kit (Pierce Chemical, Rockford, IL). Equivalent amount of proteins were used for Western blot analysis as described previously. Protein bands were visualized by chemiluminescence using Western Blotting Luminol Reagent (Santa Cruz Biotechnology, Santa Cruz, CA). The following antibodies were used for detection of HCMV proteins: mouse anti-IE1 and IE2, (MAb810); mouse anti-UL44 (Santa Cruz biotechnology Santa Cruz, CA); mouse monoclonal anti-pp65 (Vector laboratories, Burlingame, CA); mouse monoclonal anti-β-actin antibody (Millipore, Billerica, MA); rabbit polyclonal anti-RPS14 and mouse monoclonal anti-MDM2 (AbCam, Cambridge, UK), mouse monoclonal anti-p53 (Santa Cruz, CA); horseradish peroxidase (HRP)-conjugated goat anti-rabbit IgG (Cell Signaling); and HRP-conjugated sheep anti-mouse IgG, (GE Healthcare, Waukesha, WI). For detection of co-immunoprecipitated proteins, protein A-HRP conjugate (Cell Signaling Technologies, Beverly, MA) was used as secondary antibody to eliminate the interfering IgG bands.
Co-immunoprecipitation (IP) and immunoblotting. Non-infected, infected or emetine-treated HFFs were treated with MG132 (10 μM) for 12 h. […] 1 mg of lysate was precleared with bead slurry for 30 min. The precleared lysates were incubated with anti-MDM2 (2 μg) antibody overnight. The antibody complexes were isolated using protein A/G beads (Santa Cruz), washed three times with 50% IP buffer. The immunoprecipitate—protein A/G beads were boiled in SDS sample buffer, and the supernatant was analyzed on SDS-PAGE gels after immunoblotting as described previously. […] Reverse IPs were performed by pulling down the precleared lysates with either anti-p53 antibody or anti-RPS14 antibody and detected with MDM2. […] In other experiments, transfected or treated HEK293 cell lysates were pulled-down with anti-IE2 antibody and detected with anti-MDM2 antibody and vice-versa for reverse IP.

[5] = test system: MDM2-IE2 interaction; experiment: Co-immunoprecipitation of MDM2 and IE2 in transfected HEK293 cells; format: cell-based; settings: HEK293 cells transfected with IE1/2; emetine 75 nM or GCV 5 μM, 4 h
Experimental: Transient transfections. HEK-293 cells seeded into 10 cm petri dishes were transfected with HCMV plasmid encoding IE1 and IE2 (pRL45) plasmid, 1 μg/dish, using Lipofectamine 2000 in serum free medium. After 6 h, 10% FBS containing media was added along with 10 μM of MG132. […] Cells were then harvested to prepare lysates for IP.
Co-immunoprecipitation (IP) and immunoblotting. Non-infected, infected or emetine-treated HFFs were treated with MG132 (10 μM) for 12 h. Cells were harvested after 24 hpi and lysed with IP buffer containing 150 mM NaCl, 50 mM Tris pH 7.5, 2 mM EDTA, 0.5% TritonX-100 and 0.5% NP-40-40. 1 mg of lysate was precleared with bead slurry for 30 min. The precleared lysates were incubated with anti-MDM2 (2 μg) antibody overnight. The antibody complexes were isolated using protein A/G beads (Santa Cruz), washed three times with 50% IP buffer. The immunoprecipitate—protein A/G beads were boiled in SDS sample buffer, and the supernatant was analyzed on SDS-PAGE gels after immunoblotting as described previously. […] Reverse IPs were performed by pulling down the precleared lysates with either anti-p53 antibody or anti-RPS14 antibody and detected with MDM2. […] In other experiments, transfected or treated HEK293 cell lysates were pulled-down with anti-IE2 antibody and detected with anti-MDM2 antibody and vice-versa for reverse IP.

[6] = test system: HCMV in RPS14 knockdown cells; format: cell-based, human cytomegalovirus (HCMV); settings: contact-inhibited RPS14 knockdown cells; luciferase first and second cycle, pp65 at 72 hpi; dihydrochloride hydrate
[7] = test system: GCV-resistant pp28-luciferase HCMV (C607Y mutation in UL97); settings: nM concentrations
Experimental: Viruses. The pp28-luciferase HCMV Towne strain was constructed as previously described. A GCV-resistant pp28-luciferase HCMV strain, with a C607Y mutation in UL97 was also used. The recombinant viruses express luciferase under the control of the late CMV gene promoter, pp28. Luciferase expression is strongly activated 48-72 hours post infection (hpi). The recombinant viruses provide a highly-sensitive and reproducible reporter system which correlates with the classic plaque reduction assay.
Cell culture, virus infection and anti-viral assays. Human Foreskin Fibroblasts (HFFs) passage 12-16 (ATCC, CRL-2088™) and mouse embryonic fibroblasts (MEFs) passage 9-14 (ATCC, CRL-1658™) were grown in Dulbecco's Modified Eagle Medium (DMEM) containing 10% fetal bovine serum (FBS) (Gibco, Carlsbad, CA) in a 5% CO2 incubator at 37° C. Infection with HCMV or HSV was performed in HFFs, and infection with mouse CMV was performed in MEFs. For HCMV, cells were seeded in either a 96-well plate or 100 mm culture plates (Corning Costar, Sigma Aldrich) at 0.5 or 2 million cells/plate. Following 90 minute adsorption, media was removed and cells were washed with PBS. Media containing 4% FBS and compounds were added to each well. […] Luciferase activity was measured 72 h following second cycle infection.

[8] = test system: malaria; settings: 17 patients; 40 mg IM x 6 daily doses; cited from earlier work
[9] = test system: protein synthesis; settings: at concentration that inhibit CMV replication in vitro; cited from earlier work
[10] = human; cited from earlier work

SMILES: CC[C@H]1CN2CCc3cc(OC)c(OC)cc3[C@@H]2C[C@@H]1C[C@H]1NCCc2cc(OC)c(OC)cc21 [emetine, emetine dihydrochloride hydrate]
- inhibition of HSV-1 [1]: inhibited
- combined effect of emetine and GCV on virus inhibition [2]: synergistic virus inhibition
- Cmax ([3]; male, BALB/c, mouse, in vivo, 0.1 mg/kg): 1.4 ng/mL
- half-life ([3]; male, BALB/c, mouse, in vivo, ip, 0.1 mg/kg, half-life, single intraperitoneal administration 0.1 mg/kg, mice): 32 h
- half-life ([3]; male, BALB/c, mouse, in vivo, po, 1 mg/kg, half-life, single oral administration 1 mg/kg, male BALB/c mice): 32 h
- half-life ([3]; single oral administration 1 mg/kg, male BALB/c mice, dihydrochloride hydrate, 1 mg/kg): 24 h
- interaction between RPS14 and MDM2 ([4]; 24 hpi, contact-inhibited infected cells, not cycling cells, MG132 present): strongly induced
- HCMV-induced RPS14 expression ([4]; 72 hpi, contact-inhibited infected cells, emetine 75 nM): reduced
- ubiquitinated RPS14 ([4]; 72 hpi, only in contact-inhibited cells, MG132): increased
- interaction of MDM2 and IE2 [5]: significantly decreased
- HCMV inhibition in RPS14 knockdown cells [6]: unable to inhibit HCMV; also recorded: loss of HCMV inhibition
- inhibition of GCV-resistant HCMV [7]: inhibited
- treatment of malaria [8]: successful treatment
- inhibition of protein synthesis [9]: no inhibition of protein synthesis
- half-life [10]: 24 to 48 h
